How the values were obtained:
Assay type in all cases: cell-based
EGFR V3 [1] = target: T1, EGFR V3 (Homo sapiens, UniProt P00533, DELINS30-297G); experiment: Activity for inhibiting EGFR (Table A), EGFR V3 (EGFR-Viii); conditions: read-out: EGFR V3, potency code (IC50)
T1 construct: expressed in transfected cells; host or cells: BaF3 (murine pro-B), retroviral pMXs-IRES-Blasticidin

EGFR SVD [2] = target: T2, EGFR SVD (Homo sapiens, UniProt P00533, DUP768-770); experiment: BaF3 cell proliferation assay, EGFR SVD (Table A); conditions: potency code, 3 days, CellTiterGlo, read-out: EGFR SVD (Activity for Inhibiting EGFR)
T2 construct: expressed in transfected cells; host or cells: BaF3 (murine pro-B), retroviral pMXs-IRES-Blasticidin
Summary of the method: (§1)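 Proliferation read-out is used in BaF3 cells engineered to express each EGFR or HER2 form; EC50 is derived from it. Transduced populations are selected with Blasticidin, washed in PBS and cultured without IL-3.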

EGFR V3 [3] = target: T1, EGFR V3; experiment: BaF3 cell proliferation assay, EGFR V3 (Table A); conditions: potency code, 3 days, CellTiterGlo, read-out: EGFR V3 (Activity for Inhibiting EGFR)
Summary of the method: as §1

HER2 S310F [4] = target: T3, HER2 S310F (Homo sapiens, UniProt P04626, S310F); experiment: Activity for inhibiting HER2 (Table B), HER2 S310F; conditions: read-out: HER2 S310F, potency code (IC50)
T3 construct: expressed in transfected cells; host or cells: BaF3 (murine pro-B)
Method: (§2) EC50 values were determined with the same application.

EGFR NPH [5] = target: T4, EGFR NPH (Homo sapiens, UniProt P00533, DUP771-773); experiment: Activity for inhibiting EGFR (Table A), EGFR NPH; conditions: read-out: EGFR NPH, potency code (IC50)
T4 construct: expressed in transfected cells; host or cells: BaF3 (murine pro-B), retroviral pMXs-IRES-Blasticidin

EGFR WT [6] = target: T5, EGFR WT (Homo sapiens, UniProt P00533); experiment: BaF3 cell proliferation assay, EGFR WT (Table A); conditions: potency code, 3 days, CellTiterGlo, read-out: EGFR WT (Activity for Inhibiting EGFR)
Summary of the method: as §1

EGFR WT [7] = target: T5, EGFR WT; experiment: Activity for inhibiting EGFR (Table A), EGFR WT; conditions: read-out: EGFR WT, potency code (IC50)
HER2 S310F [8] = target: T3, HER2 S310F; experiment: BaF3 cell proliferation assay, HER2 S310F (Table B); conditions: potency code, 3 days, CellTiterGlo, read-out: HER2 S310F (Activity for Inhibiting HER2)
HER2 YVMA [9] = target: T6, HER2 YVMA (Homo sapiens, UniProt P04626, INS775YVMA); experiment: Activity for inhibiting HER2 (Table B), HER2 YVMA; conditions: read-out: HER2 YVMA, potency code (IC50)
T6 construct: expressed in transfected cells; host or cells: BaF3 (murine pro-B)
Method: as §2

HER2 YVMA [10] = target: T6, HER2 YVMA; experiment: BaF3 cell proliferation assay, HER2 YVMA (Table B); conditions: potency code, 3 days, CellTiterGlo, read-out: HER2 YVMA (Activity for Inhibiting HER2)
EGFR SVD [11] = target: T2, EGFR SVD; experiment: Activity for inhibiting EGFR (Table A), EGFR SVD; conditions: read-out: EGFR SVD, potency code (IC50)
HER2 WT [12] = target: T7, HER2 WT (Homo sapiens, UniProt P04626); experiment: Activity for inhibiting HER2 (Table B), HER2 WT
EGFR NPH [13] = target: T4, EGFR NPH; experiment: BaF3 cell proliferation assay, EGFR NPH (Table A); conditions: potency code, 3 days, CellTiterGlo, read-out: EGFR NPH (Activity for Inhibiting EGFR)
Summary of the method: as §1

HER2 WT [14] = target: T7, HER2 WT; experiment: BaF3 cell proliferation assay, HER2 WT (Table B); conditions: potency code, 3 days, CellTiterGlo, read-out: HER2 WT (Activity for Inhibiting HER2)
[15] = Table B, read-out: HER2 WT, potency code (IC50)
[16] = text lists of compounds, read-out: IC50 value for inhibiting wild-type HER2

T3 sequence (P04626 23-1255 S310F): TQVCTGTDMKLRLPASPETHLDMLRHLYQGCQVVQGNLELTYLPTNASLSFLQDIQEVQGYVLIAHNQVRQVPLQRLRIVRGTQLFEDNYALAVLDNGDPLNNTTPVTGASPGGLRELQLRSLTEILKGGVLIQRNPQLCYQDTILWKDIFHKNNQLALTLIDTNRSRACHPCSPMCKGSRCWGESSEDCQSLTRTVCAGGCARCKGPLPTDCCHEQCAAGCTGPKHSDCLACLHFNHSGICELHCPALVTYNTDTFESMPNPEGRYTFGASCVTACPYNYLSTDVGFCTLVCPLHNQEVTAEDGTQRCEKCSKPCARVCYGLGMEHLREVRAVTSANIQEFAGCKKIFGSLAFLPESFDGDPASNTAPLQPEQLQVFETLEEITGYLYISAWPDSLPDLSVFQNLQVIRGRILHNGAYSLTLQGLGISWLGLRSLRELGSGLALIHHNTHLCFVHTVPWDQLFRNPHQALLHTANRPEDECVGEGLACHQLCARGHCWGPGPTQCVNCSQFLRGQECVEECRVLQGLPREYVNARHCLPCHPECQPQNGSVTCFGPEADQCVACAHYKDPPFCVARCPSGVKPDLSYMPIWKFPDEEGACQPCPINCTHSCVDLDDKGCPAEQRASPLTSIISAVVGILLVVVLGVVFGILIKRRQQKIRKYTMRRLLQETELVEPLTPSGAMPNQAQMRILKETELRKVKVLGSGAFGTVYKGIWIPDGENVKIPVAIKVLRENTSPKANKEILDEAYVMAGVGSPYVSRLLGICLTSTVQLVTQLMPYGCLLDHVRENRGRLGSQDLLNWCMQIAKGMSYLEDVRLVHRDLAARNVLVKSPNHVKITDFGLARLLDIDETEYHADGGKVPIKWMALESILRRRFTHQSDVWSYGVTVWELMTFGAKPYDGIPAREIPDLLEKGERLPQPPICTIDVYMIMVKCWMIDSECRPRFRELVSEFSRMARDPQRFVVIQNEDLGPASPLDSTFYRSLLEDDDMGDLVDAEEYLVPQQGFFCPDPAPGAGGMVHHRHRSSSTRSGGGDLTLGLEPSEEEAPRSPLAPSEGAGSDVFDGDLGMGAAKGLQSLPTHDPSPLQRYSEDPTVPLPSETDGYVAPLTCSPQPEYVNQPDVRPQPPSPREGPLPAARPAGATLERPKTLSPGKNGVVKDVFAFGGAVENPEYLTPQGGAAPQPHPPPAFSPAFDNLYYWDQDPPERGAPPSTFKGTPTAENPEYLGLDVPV
T7 sequence (P04626 23-1255): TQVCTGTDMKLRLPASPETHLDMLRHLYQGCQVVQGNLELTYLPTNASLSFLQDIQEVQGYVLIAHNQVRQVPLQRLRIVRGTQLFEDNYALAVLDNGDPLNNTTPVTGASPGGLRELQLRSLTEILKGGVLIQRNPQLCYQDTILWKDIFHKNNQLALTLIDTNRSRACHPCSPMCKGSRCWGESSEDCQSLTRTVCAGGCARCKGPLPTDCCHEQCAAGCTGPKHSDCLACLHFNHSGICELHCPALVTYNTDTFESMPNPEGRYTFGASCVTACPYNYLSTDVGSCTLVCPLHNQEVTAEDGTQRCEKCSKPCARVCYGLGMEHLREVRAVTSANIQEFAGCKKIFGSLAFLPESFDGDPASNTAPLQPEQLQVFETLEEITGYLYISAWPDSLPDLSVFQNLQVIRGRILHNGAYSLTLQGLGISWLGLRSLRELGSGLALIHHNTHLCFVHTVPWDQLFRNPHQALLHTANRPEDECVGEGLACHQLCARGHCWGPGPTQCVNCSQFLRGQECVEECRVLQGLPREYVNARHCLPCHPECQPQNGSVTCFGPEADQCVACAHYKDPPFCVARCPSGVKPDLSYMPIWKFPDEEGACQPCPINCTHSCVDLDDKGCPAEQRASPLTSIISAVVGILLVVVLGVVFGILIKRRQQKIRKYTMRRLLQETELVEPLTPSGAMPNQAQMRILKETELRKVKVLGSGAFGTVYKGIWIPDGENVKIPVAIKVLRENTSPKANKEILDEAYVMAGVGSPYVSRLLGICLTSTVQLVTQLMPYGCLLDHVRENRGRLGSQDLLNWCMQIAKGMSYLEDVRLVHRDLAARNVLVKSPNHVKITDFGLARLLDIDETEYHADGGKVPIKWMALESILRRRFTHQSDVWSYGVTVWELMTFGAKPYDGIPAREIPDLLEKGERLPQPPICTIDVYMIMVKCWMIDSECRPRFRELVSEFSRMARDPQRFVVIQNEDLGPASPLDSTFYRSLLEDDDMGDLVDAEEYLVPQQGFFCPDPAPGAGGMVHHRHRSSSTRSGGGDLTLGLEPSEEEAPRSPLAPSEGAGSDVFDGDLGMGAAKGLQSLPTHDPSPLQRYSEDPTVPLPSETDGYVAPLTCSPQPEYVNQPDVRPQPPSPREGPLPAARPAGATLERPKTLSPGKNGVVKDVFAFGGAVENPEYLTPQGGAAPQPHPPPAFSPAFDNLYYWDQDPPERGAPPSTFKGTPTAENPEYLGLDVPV
T2 sequence (P00533 with tags, fused parts or gaps DUP768-770): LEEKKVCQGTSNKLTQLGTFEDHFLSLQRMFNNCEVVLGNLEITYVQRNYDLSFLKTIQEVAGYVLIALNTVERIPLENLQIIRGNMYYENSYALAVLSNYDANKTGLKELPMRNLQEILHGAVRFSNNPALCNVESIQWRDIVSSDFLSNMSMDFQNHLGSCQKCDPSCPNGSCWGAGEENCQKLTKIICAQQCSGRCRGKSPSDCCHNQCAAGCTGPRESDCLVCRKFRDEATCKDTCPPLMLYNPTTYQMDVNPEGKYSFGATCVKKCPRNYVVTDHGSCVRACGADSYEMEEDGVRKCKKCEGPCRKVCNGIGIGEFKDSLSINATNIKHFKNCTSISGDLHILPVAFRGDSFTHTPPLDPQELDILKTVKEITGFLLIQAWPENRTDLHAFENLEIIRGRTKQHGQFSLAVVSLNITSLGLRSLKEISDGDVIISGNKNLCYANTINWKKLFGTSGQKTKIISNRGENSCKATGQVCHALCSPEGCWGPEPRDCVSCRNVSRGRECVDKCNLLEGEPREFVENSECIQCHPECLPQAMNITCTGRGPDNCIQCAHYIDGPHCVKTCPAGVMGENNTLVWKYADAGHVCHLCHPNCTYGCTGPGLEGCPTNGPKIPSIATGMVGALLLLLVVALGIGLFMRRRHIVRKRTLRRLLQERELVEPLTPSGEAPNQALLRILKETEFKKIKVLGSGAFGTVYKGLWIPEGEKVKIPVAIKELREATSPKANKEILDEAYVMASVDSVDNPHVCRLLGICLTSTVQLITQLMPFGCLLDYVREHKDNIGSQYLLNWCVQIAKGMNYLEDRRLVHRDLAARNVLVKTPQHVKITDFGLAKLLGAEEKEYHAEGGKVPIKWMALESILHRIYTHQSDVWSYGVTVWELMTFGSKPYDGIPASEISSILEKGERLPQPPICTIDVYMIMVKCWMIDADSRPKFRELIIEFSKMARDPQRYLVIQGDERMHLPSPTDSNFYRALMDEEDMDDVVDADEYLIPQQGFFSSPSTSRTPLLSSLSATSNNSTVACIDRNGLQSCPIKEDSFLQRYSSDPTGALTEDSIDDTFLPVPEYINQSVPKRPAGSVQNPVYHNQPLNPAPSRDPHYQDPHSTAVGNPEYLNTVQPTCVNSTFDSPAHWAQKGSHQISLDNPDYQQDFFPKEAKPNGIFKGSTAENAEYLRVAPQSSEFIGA
T6 sequence (P04626 with tags, fused parts or gaps INS775YVMA): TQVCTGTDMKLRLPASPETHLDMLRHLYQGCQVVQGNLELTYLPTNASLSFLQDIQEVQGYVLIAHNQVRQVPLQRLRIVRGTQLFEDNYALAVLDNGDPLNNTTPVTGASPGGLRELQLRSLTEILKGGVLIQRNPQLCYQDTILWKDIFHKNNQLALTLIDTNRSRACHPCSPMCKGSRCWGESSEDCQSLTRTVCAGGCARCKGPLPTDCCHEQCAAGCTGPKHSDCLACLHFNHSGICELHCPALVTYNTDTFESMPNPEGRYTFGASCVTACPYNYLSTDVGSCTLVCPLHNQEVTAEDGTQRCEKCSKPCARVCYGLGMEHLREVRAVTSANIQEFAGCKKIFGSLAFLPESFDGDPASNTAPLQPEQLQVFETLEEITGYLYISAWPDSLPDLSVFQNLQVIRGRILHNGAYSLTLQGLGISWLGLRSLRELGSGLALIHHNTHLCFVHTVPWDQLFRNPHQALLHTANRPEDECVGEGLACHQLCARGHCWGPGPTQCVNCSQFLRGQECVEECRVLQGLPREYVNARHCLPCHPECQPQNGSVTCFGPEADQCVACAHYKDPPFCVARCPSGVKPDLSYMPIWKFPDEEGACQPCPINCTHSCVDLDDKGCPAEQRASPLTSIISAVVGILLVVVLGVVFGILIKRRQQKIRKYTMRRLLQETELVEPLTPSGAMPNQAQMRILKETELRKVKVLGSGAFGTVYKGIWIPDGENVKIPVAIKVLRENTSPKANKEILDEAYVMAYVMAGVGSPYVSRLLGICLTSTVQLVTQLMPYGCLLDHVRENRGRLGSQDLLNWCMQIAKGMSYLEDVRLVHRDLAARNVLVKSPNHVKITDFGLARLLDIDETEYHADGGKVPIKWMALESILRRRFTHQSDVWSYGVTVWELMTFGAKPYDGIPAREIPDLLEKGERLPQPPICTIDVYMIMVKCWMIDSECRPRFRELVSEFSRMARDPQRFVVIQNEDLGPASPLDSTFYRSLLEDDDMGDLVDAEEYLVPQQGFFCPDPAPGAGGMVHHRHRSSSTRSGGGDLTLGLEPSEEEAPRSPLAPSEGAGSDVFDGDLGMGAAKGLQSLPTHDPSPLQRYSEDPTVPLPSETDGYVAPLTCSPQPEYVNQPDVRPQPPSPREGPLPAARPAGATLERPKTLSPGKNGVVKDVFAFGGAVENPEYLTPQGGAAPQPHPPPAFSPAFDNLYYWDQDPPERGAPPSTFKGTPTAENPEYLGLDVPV

Structure (SMILES)	IC50 (EGFR V3 [1]) [nM]	IC50 (EGFR SVD [2]) [nM]	IC50 (EGFR V3 [3]) [nM]	IC50 (HER2 S310F [4]) [nM]	IC50 (EGFR NPH [5]) [nM]	IC50 (EGFR WT [6]) [nM]	IC50 (EGFR WT [7]) [nM]	IC50 (HER2 S310F [8]) [nM]	IC50 (HER2 YVMA [9]) [nM]	IC50 (HER2 YVMA [10]) [nM]	IC50 (EGFR SVD [11]) [nM]	IC50 (HER2 WT [12]; [15]) [nM]	IC50 (HER2 WT [12]; [16]) [nM]	IC50 (EGFR NPH [13]) [nM]	IC50 (HER2 WT [14]) [nM]
C=CC(=O)Nc1cc2c(Nc3ccc(OCc4ccccn4)c(Cl)c3)ncnc2cc1OCCN1CC2(CCO2)C1 [compound 52]	20 to 30	50 to 100	20 to 30	20 to 30	50 to 100	500 to 1000	500 to 1000	20 to 30	100 to 200	100 to 200	50 to 100	5 to 10	≤ 10	50 to 100	5 to 10
C=CC(=O)Nc1cc2c(Nc3ccc(OCc4ccccn4)c(Cl)c3)ncnc2cc1OCC1(N(C)C)CC1 [compound 54]	10 to 20	50 to 100	10 to 20	20 to 30	100 to 200	> 1000	> 1000	20 to 30	100 to 200	100 to 200	50 to 100	5 to 10	≤ 10	100 to 200	5 to 10
C=CC(=O)Nc1cc2c(Nc3ccc(OCc4ccccn4)cc3F)ncnc2cc1OCCN1CCOCC1 [compound 56]	20 to 30	300 to 500	20 to 30	50 to 100	300 to 500	300 to 500	300 to 500	50 to 100	200 to 300	200 to 300	300 to 500	20 to 30	≤ 50	300 to 500	20 to 30
C=CC(=O)Nc1cc2c(Nc3cc(Cl)c(OCc4ccccn4)cc3F)ncnc2cc1OCCN1CCOCC1 [compound 57]	10 to 20	30 to 50	10 to 20	10 to 20	50 to 100	500 to 1000	500 to 1000	10 to 20	50 to 100	50 to 100	30 to 50	5 to 10	≤ 10	50 to 100	5 to 10
C=CC(=O)Nc1cc2c(Nc3cc(Cl)c(OCc4ccccn4)cc3F)ncnc2cc1OC1CCN(C)C1 (centres unmarked) [compound 60]	10 to 20	200 to 300	10 to 20	20 to 30	200 to 300	200 to 300	200 to 300	20 to 30	300 to 500	300 to 500	200 to 300	5 to 10	≤ 10	200 to 300	5 to 10
C=CC(=O)Nc1cc2c(Nc3ccc(OCc4ccccn4)c(Cl)c3)ncnc2cc1OC1CC(N(C)C)C1 (centres unmarked) [compound 62]	10 to 20	20 to 30	10 to 20	5 to 10	30 to 50	300 to 500	300 to 500	5 to 10	30 to 50	30 to 50	20 to 30	< 5	≤ 5	30 to 50	< 5
C=CC(=O)Nc1cc2c(Nc3ccc(Oc4ccccc4)cc3)ncnc2cc1OCCN1CCOCC1 [compound 63]	50 to 100	300 to 500	50 to 100	50 to 100	300 to 500	> 1000	> 1000	50 to 100	300 to 500	300 to 500	300 to 500	30 to 50	≤ 50	300 to 500	30 to 50
C=CC(=O)Nc1cc2c(Nc3ccc(OCc4ccccn4)c(Cl)c3)ncnc2cc1C#CC(C)(C)N(C)C [compound 66]	20 to 30	50 to 100	20 to 30	10 to 20	100 to 200	500 to 1000	500 to 1000	10 to 20	50 to 100	50 to 100	50 to 100	50 to 100	–	100 to 200	50 to 100
C=CC(=O)Nc1cc2c(Nc3ccc(Oc4ccc(C)nc4)c(C)c3)ncnc2cc1OC1CCN(C)C1 (centres unmarked) [compound 68]	100 to 200	500 to 1000	100 to 200	30 to 50	500 to 1000	500 to 1000	500 to 1000	30 to 50	300 to 500	300 to 500	500 to 1000	10 to 20	≤ 20	500 to 1000	10 to 20
C=CC(=O)Nc1cc2c(Nc3ccc(OCc4ccccn4)c(Cl)c3)ncnc2cc1N1CCC(N(C)C)CC1 [compound 78]	30 to 50	200 to 300	30 to 50	50 to 100	300 to 500	> 1000	> 1000	50 to 100	500 to 1000	500 to 1000	200 to 300	10 to 20	≤ 20	300 to 500	10 to 20

From patent US11034672B1, “Tyrosine kinase inhibitor compositions, methods of making and methods of use” (Black Diamond Therapeutics, Inc., priority 2018, dated 2021)
